Measurements taken from patent publication US20090215713A1, “Use of atp for the manufacture of a medicament for the prevention and treatment of oxidative stress and related conditions” (priority 2004, published 2009).
“Also recorded” adds a separate entry of the source.

Columns and labels:
[1] = test system: mice bearing colon tumour; conditions: daily intraperitoneal injections of 25 mmol/L for 10 days; cited from earlier work
[2] = cited from earlier work
[3] = Randomized ATP infusions in non-small-cell lung cancer patients, stage IIIB and IV; format: in vivo, human
Protocol: Patients with non-small-cell lung cancer, stage IIIB and IV, in the palliative treatment stage, were randomized to receive either ATP infusions (total of 10 infusions over 24 weeks) or no treatment. Outcome assessment (quality of life, blood values) was performed at regular intervals.

TNF-α = experiment: LPS+PHA-induced TNF-α secretion in whole blood under oxidative stress (H2O2); format: cell-based, human
Protocol: FIG. 10 Effect of ATP on LPS+PHA-induced TNF-α secretion in whole blood from healthy subjects under conditions of oxidative stress. Two concentrations of H2O2 (1 and 10 mM) were added to whole blood, followed by the incubation with the concentrations of ATP. Then, blood was exposed to 10 μg/ml LPS and 1 μg/ml PHA, and incubated for 24 h. The TNF-α released into the supernatants was analyzed using the ELISA method. […] Data are expressed as the mean values; error bars represent SEM.
Whole blood of healthy subjects was collected as described for Experiment 2, and pre-incubated with 1 or 10 mM H2O2 at 5% CO2 and 37° C. for 15 min. Then, ATP was added to the blood at final concentrations of 1-300 μM for the 30 min incubation step, and then incubated as in Experiment 2 with LPS/PHA for 24 hours.

GSH and GSH/GSSG ratios = experiment: Intracellular GSH and GSH/GSSG ratios in whole blood after γ-irradiation; format: cell-based; conditions: 300 μM ATP, 16 Gy
Protocol: (§1) Samples with 5 ml of blood were pre-incubated with 300 μM ATP or medium (control) for 30 minutes. Then, at t=0, each blood sample was irradiated with γ-radiation at a dose of 16 Gy. Preceding irradiation (baseline) and at 1 h, 3 h and 5 h post-irradiation, a sample was taken for analysis of intracellular GSH and GSH/GSSG ratios according to standard methods, as well as for cytokine analysis by the ELISA method.

[4] = previous study, ATP infusion during 30 hrs; cited from earlier work
TNFα = TNFα secretion in whole blood after γ-irradiation; format: cell-based; conditions: 300 μM ATP, 16 Gy, 3 and 5 h post-irradiation
Protocol: FIG. 18 Effect of ATP on cytokine secretion in whole blood after γ-irradiation. Blood was pre-incubated with 300 μM ATP or medium (control) for 30 minutes and then irradiated with γ-radiation (16 Gy).
as §1

IL-6 = experiment: LPS+PHA-induced IL-6 secretion in whole blood from healthy subjects (ELISA); format: cell-based, human; conditions: indicated ATP concentrations, 24 h
Protocol: FIG. 9 Effect of ATP on LPS+PHA-induced IL-6 secretion in whole blood from healthy subjects. The whole blood was exposed to 10 μg/ml LPS and 1 μg/ml PHA with indicated concentrations of ATP for 24 h. The IL-6 released into the supernatants was analyzed using the ELISA method. Results are expressed in percentage, 100% being the IL-6 release under stimulation by LPS+PHA without ATP. […] Data are expressed at the mean values; error bars represent SEM.
Blood was collected from 8 healthy subjects in heparin containing vacutainer tubes. All incubations were performed in duplicate. ATP was dissolved in RPMI 1640 culture medium, at a final concentration of 1-300 μM, and blood pre-incubated with ATP at 5% CO2 at 37 DC for 30 min. After stimulation with LPS en PHA (10 and 1 μg/ml final concentration, respectively), the plates were incubated in 5% CO2 at 37° C. for 24 h. Cell-free supernatant fluids were then collected by centrifugation (6000 rpm, 10 min at 4° C.) and stored at −20° C. until tested for presence of cytokines. All cytokines were quantified by means of PeliKine Compact human ELISA kits (CLB/Sanquin, The Netherlands), based on appropriate and validated sets of monoclonal antibodies.

For Nc1ncnc2c1ncn2[C@@H]1O[C@H](COP(=O)(O)OP(=O)(O)OP(=O)(O)O)[C@@H](O)[C@H]1O [ATP, Adenosine 5′-triphosphate], the “effect on host weight loss” value [1] is listed as “significant inhibition”, the body weight ([2]; phase I/II, 2 to 3 intravenous courses of 96 hours) is listed as “stabilisation” and the average weight gain ([2]; phase II, after 4 ATP courses) is listed as 1.3 kg. The “plasma lactate dehydrogenase concentration” value ([3]; 24-week study period) was “remained stable”, the plasma triglyceride concentration ([3]; 24-week study period) was “remained stable” and the “decreased sexual interest, compared to the control group” value ([3]; human, in vivo) was “normalization”. The “dizziness, compared to the control group” value ([3]; human, in vivo) was “reduction”, the “dry mouth, compared to the control group” value ([3]; human, in vivo) was “improvement” and the “effect on LPS+PHA-induced TNF-α release” value (TNF-α; 1 or 10 mM H2O2) was “significantly inhibited”. The “effect on TNF-α release” value (TNF-α; ATP below 100 μM, 1 or 10 mM H2O2) was “did not affect”, the inhibition at 300 µM (TNF-α; Homo sapiens, 300 μM ATP, 1 or 10 mM H2O2, LPS-PHA, read-out: inhibition of TNF-α release) was ~50% and the “effect on irradiation-induced decrease in GSH and GSH/GSSG ratios” value (GSH and GSH/GSSG ratios) was “attenuation”. The life-threatening side effects [4] was “did not find any”, the “effect on irradiation-induced TNFα stimulation” value (TNFα) was “completely blocked” and the “effect on LPS+PHA-induced IL-6 release” value (IL-6) was “No effect; also recorded: not influenced”.
